Test results from PMC3626541, “A first in human, safety, pharmacokinetics, and clinical activity phase I study of once weekly administration of the Hsp90 inhibitor ganetespib (STA-9090) in patients with solid malignancies” (BMC Cancer, 2013).

Tested on: patients with advanced solid tumors
Experiment: Safety: adverse events (NCI CTCAE v3.0), ECG
Format: in vivo, human
Experimental: Patients’ demographics and medical history were recorded at baseline. Physical examination and PS were assessed at baseline and on Day 1 of each cycle. Adverse events (AEs), vital signs, hematology and chemistry values, and creatinine clearance were assessed at baseline and weekly during treatment. Toxicity was graded using National Cancer Institute Common Terminology Criteria for Adverse Events (NCI CTCAE), version 3.0. An electrocardiogram (ECG) was performed at baseline, before and after treatment on Days 1 and 15 of Cycles 1 and 2, and on Day 15 of even-numbered cycles thereafter. CT scans were done at baseline and every 8 weeks thereafter. Tumor response was assessed using Response Evaluation Criteria in Solid Tumors (RECIST, v1.0), with confirmation of responses performed at least 4 weeks later.

CC(C)c1cc(-c2n[nH]c(=O)n2-c2ccc3c(ccn3C)c2)c(O)cc1O [Ganetespib, 5-[2,4-dihydroxy-5-(1 methyl-ethyl)phenyl]-2,4 dihydro-4-(1-methyl-1H indol-5 yl)-3H-1,2,4 triazole-3-one]
Constipation, AE of any grade, Number (%) of patients (150-216 mg/m^2, n = 22): 3 (13.6) n (%)
Decreased appetite, AE of any grade, Number (%) of patients (150-216 mg/m^2, n = 22): 8 (36.4) n (%)
Dehydration, AE of any grade, Number (%) of patients (150-216 mg/m^2, n = 22): 3 (13.6) n (%)
Dehydration, CTCAE Grade 3 and 4 AE, Number (%) of patients (150-216 mg/m^2, n = 22): 1 (4.5) n (%)
Dehydration, serious adverse events, Number (%) of patients (150-216 mg/m^2, n = 22): 1 (4.5) n (%)
Diarrhea, AE of any grade, Number (%) of patients (150-216 mg/m^2, n = 22): 21 (95.5) n (%)
Diarrhea, CTCAE Grade 3 and 4 AE, Number (%) of patients (150-216 mg/m^2, n = 22): 2 (9.1) n (%)
Dizziness, AE of any grade, Number (%) of patients (150-216 mg/m^2, n = 22): 3 (13.6) n (%)
Dry mouth, AE of any grade, Number (%) of patients (150-216 mg/m^2, n = 22): 3 (13.6) n (%)
Dyspnea, AE of any grade, Number (%) of patients (150-216 mg/m^2, n = 22): 4 (18.2) n (%)
Extremity pain, AE of any grade, Number (%) of patients (150-216 mg/m^2, n = 22): 1 (4.5) n (%)
Fatigue, AE of any grade, Number (%) of patients (150-216 mg/m^2, n = 22): 13 (59.1) n (%)
Fatigue, CTCAE Grade 3 and 4 AE, Number (%) of patients (150-216 mg/m^2, n = 22): 4 (18.2) n (%)
Headache, AE of any grade, Number (%) of patients (150-216 mg/m^2, n = 22): 6 (27.3) n (%)
Hyperbilirubinemia, CTCAE Grade 3 and 4 AE, Number (%) of patients (150-216 mg/m^2, n = 22): 2 (9.1) n (%)
Hypokalemia, AE of any grade, Number (%) of patients (150-216 mg/m^2, n = 22): 4 (18.2) n (%)
Hypokalemia, CTCAE Grade 3 and 4 AE, Number (%) of patients (150-216 mg/m^2, n = 22): 2 (9.1) n (%)
Hyponatremia, CTCAE Grade 3 and 4 AE, Number (%) of patients (150-216 mg/m^2, n = 22): 0 n (%)
Hypophosphatemia, AE of any grade, Number (%) of patients (150-216 mg/m^2, n = 22): 2 (9.1) n (%)
Hypophosphatemia, CTCAE Grade 3 and 4 AE, Number (%) of patients (150-216 mg/m^2, n = 22): 2 (9.1) n (%)
Insomnia, AE of any grade, Number (%) of patients (150-216 mg/m^2, n = 22): 6 (27.3) n (%)
Musculoskeletal chest pain, AE of any grade, Number (%) of patients (150-216 mg/m^2, n = 22): 4 (18.2) n (%)
Nausea, AE of any grade, Number (%) of patients (150-216 mg/m^2, n = 22): 7 (31.8) n (%)
Peripheral edema, AE of any grade, Number (%) of patients (150-216 mg/m^2, n = 22): 5 (22.7) n (%)
Pneumonia, serious adverse events, Number (%) of patients (150-216 mg/m^2, n = 22): 1 (4.5) n (%)
Rash, AE of any grade, Number (%) of patients (150-216 mg/m^2, n = 22): 1 (4.5) n (%)
Serum amylase elevated, CTCAE Grade 3 and 4 AE, Number (%) of patients (150-216 mg/m^2, n = 22): 1 (4.5) n (%)
Spinal cord compression, CTCAE Grade 3 and 4 AE, Number (%) of patients (150-216 mg/m^2, n = 22): 0 n (%)
Urinary tract infection, AE of any grade, Number (%) of patients (150-216 mg/m^2, n = 22): 3 (13.6) n (%)
Vomiting, AE of any grade, Number (%) of patients (150-216 mg/m^2, n = 22): 3 (13.6) n (%)
Weight decreased, AE of any grade, Number (%) of patients (150-216 mg/m^2, n = 22): 5 (22.7) n (%)
ALT elevated, AE of any grade, Number (%) of patients (150-216 mg/m^2, n = 22, first of two ALT elevated lines): 5 (22.7) n (%)
ALT elevated, AE of any grade, Number (%) of patients (150-216 mg/m^2, n = 22, second of two ALT elevated lines): 3 (13.6) n (%)
Incidence of diarrhea (150–216 mg/m^2 dose levels): 95.5%
Incidence of fatigue (150–216 mg/m^2 dose levels): 59.1%
ALT elevation, CTCAE Grade 3 and 4 AE, Number (%) of patients (All patients, n = 53): 3 (5.7) n (%)
AST elevated, AE of any grade, Number (%) of patients (All patients, n = 53): 9 (17) n (%)
Abdominal distension, AE of any grade, Number (%) of patients (All patients, n = 53): 6 (11.3) n (%)
Abdominal pain, AE of any grade, Number (%) of patients (All patients, n = 53): 20 (37.7) n (%)
Abdominal pain, serious adverse events, Number (%) of patients (All patients, n = 53): 2 (3.8) n (%)
Anemia, AE of any grade, Number (%) of patients (All patients, n = 53): 16 (30.2) n (%)
Any event, AE of any grade, Number (%) of patients (All patients, n = 53): 53 (100) n (%)
Any event, CTCAE Grade 3 and 4 AE, Number (%) of patients (All patients, n = 53): 36 (67.9) n (%)
Any event, serious adverse events, Number (%) of patients (All patients, n = 53): 15 (28.3) n (%)
Arthralgia, CTCAE Grade 3 and 4 AE, Number (%) of patients (All patients, n = 53): 2 (3.8) n (%)
Asthenia, AE of any grade, Number (%) of patients (All patients, n = 53): 8 (15.1) n (%)
Asthenia, CTCAE Grade 3 and 4 AE, Number (%) of patients (All patients, n = 53): 4 (7.5) n (%)
Asthenia, serious adverse events, Number (%) of patients (All patients, n = 53): 2 (3.8) n (%)
Back pain, AE of any grade, Number (%) of patients (All patients, n = 53): 8 (15.1) n (%)
Constipation, AE of any grade, Number (%) of patients (All patients, n = 53): 9 (17) n (%)
Decreased appetite, AE of any grade, Number (%) of patients (All patients, n = 53): 11 (20.8) n (%)
Dehydration, AE of any grade, Number (%) of patients (All patients, n = 53): 7 (13.2) n (%)
Dehydration, CTCAE Grade 3 and 4 AE, Number (%) of patients (All patients, n = 53): 3 (5.7) n (%)
Dehydration, serious adverse events, Number (%) of patients (All patients, n = 53): 2 (3.8) n (%)
Diarrhea, AE of any grade, Number (%) of patients (All patients, n = 53): 47 (88.7) n (%)
Diarrhea, CTCAE Grade 3 and 4 AE, Number (%) of patients (All patients, n = 53): 4 (7.5) n (%)
